Test systems include U251 CNS; COLO 205 colon; SNB-75 CNS; K-562 leukemia; UACC-62 melanoma; OVCAR-5 ovarian; CAKI-1 renal; HS 578T breast; MCF7 breast; SR leukemia.
Test in all cases: NCI anticancer screen, dose series, 48 h

Each structure is given as a SMILES string. “And” between values parts separate entries of the source, which are not always exact repeats. Equal values may be shown once.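 Values below derive from 48-hour exposures of cells grown in 96-well plates, with endpoints linearly interpolated between the two concentrations bracketing the appropriate inhibition level. The concentration for full growth arrest is given as TGI.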

For the compound `Cc1nc2c(o1)C(=Nc1ccccc1)c1ccccc1C2=O`, the TGI is 9.4 µM with U251 CNS; 29.7 µM in the experiment with COLO 205 colon; 23.6 µM in the experiment on SNB-75 CNS; > 100 µM in the experiment on K-562 leukemia; 11 µM in the experiment with UACC-62 melanoma; 32.4 µM with OVCAR-5 ovarian. In addition, the TGI in the experiment on CAKI-1 renal was found to be 36.7 µM.

In the case of `CSC1C(=O)Nc2ccc3ccccc3c21` (configuration not stated), the TGI in the experiment with U251 CNS was 33.6 µM; in the experiment with HS 578T breast, 46 µM; in the experiment with COLO 205 colon, 43.3 µM; with SNB-75 CNS, 70.5 µM; in the experiment on UACC-62 melanoma, 35.9 µM; with OVCAR-5 ovarian, > 100 µM. The TGI in the experiment with MCF7 breast was > 100 µM; in the experiment on CAKI-1 renal, 38.9 µM.

As to `O=C(O)C[C@@H]1[C@@H](O)[C@@H](O)CN2C(=O)c3ccccc3[C@H]12`, the TGI with U251 CNS, in the experiment on COLO 205 colon, in the experiment on SNB-75 CNS, in the experiment on SR leukemia, in the experiment with K-562 leukemia and in the experiment with UACC-62 melanoma was > 100 µM throughout. In addition, the TGI in the experiment on OVCAR-5 ovarian, in the experiment on MCF7 breast and in the experiment on CAKI-1 renal was > 100 µM each time.

As for `CN(CCO)CCCC1COc2ccccc2O1` (configuration not stated), the TGI in the experiment on U251 CNS, with COLO 205 colon, in the experiment with SNB-75 CNS, in the experiment on SR leukemia, in the experiment on K-562 leukemia and in the experiment with UACC-62 melanoma was > 100 µM in each case. Besides, the TGI in the experiment on OVCAR-5 ovarian, with MCF7 breast and in the experiment with CAKI-1 renal was > 100 µM throughout.

Consider `O=c1cc(NNc2cccc(F)c2)[nH]c(=O)[nH]1`, for which the TGI in the experiment with U251 CNS is 31 µM; in the experiment with HS 578T breast, > 100 µM; in the experiment with COLO 205 colon, > 100 µM; in the experiment with SNB-75 CNS, > 100 µM; in the experiment on SR leukemia, 61.7 µM; in the experiment on K-562 leukemia it was 84.4 µM. For the same compound, the TGI in the experiment with UACC-62 melanoma was > 100 µM; in the experiment on OVCAR-5 ovarian it was > 100 µM; in the experiment on CAKI-1 renal, 29.9 µM.

For `CCO[C@@]1(COCc2ccccc2)OC(=O)C[C@@H]1N1C(=O)OC[C@@H]1c1ccccc1`, the TGI in the experiment on U251 CNS, with COLO 205 colon, in the experiment with SNB-75 CNS, in the experiment on K-562 leukemia, in the experiment with UACC-62 melanoma and in the experiment with OVCAR-5 ovarian was > 100 µM throughout. For the same compound, the TGI in the experiment on MCF7 breast is > 100 µM; in the experiment on CAKI-1 renal it was 76.4 µM.

Turning to `O=c1[nH]c2ccccc2c(O)c1/C=N/C(=S)NCc1ccccc1`, the TGI with U251 CNS, in the experiment on COLO 205 colon, in the experiment on SNB-75 CNS, in the experiment on UACC-62 melanoma, in the experiment with OVCAR-5 ovarian and in the experiment on MCF7 breast was > 100 µM in each case. The TGI in the experiment with CAKI-1 renal is > 100 µM.

With `CCn1c(SC(C)C(=O)c2c(C)n(C)n(-c3ccccc3)c2=O)nc2ccccc2c1=O` (configuration not stated), the TGI in the experiment with U251 CNS, in the experiment on COLO 205 colon, in the experiment with SNB-75 CNS, with SR leukemia, in the experiment with UACC-62 melanoma and with OVCAR-5 ovarian was > 100 µM throughout.

On to `NC(=O)c1ccccc1NC(=O)C(=O)Cc1nc2ccccc2[nH]c1=O`, for which the TGI in the experiment on U251 CNS, with COLO 205 colon, with SNB-75 CNS, in the experiment on K-562 leukemia, in the experiment on UACC-62 melanoma and in the experiment on OVCAR-5 ovarian was > 100 µM each time. Further, in the experiment on CAKI-1 renal, the TGI was > 100 µM.

For the compound `CCCCCCNC(=O)CCC(NC(=O)c1ccc(N(C)Cc2cnc3nc(N)nc(N)c3n2)cc1)C(=O)NCCCCCC` (configuration not stated), the TGI in the experiment on U251 CNS, in the experiment with COLO 205 colon, in the experiment with SNB-75 CNS, in the experiment with SR leukemia, in the experiment with K-562 leukemia and in the experiment with UACC-62 melanoma was > 100 µM each time. In addition, the TGI is > 100 µM in the experiment with OVCAR-5 ovarian, 34.1 µM with MCF7 breast and > 100 µM with CAKI-1 renal.

As for `CCN(CC)c1ccc(N=Nc2ccc([N+](=O)[O-])cc2OC(=O)/C=C/c2ccccc2)c(OC(=O)/C=C/c2ccccc2)c1`, the TGI in the experiment on U251 CNS was > 100 µM; in the experiment on COLO 205 colon, > 100 µM; in the experiment with SNB-75 CNS, > 100 µM; in the experiment on SR leukemia, > 100 µM; with K-562 leukemia it was > 100 µM; in the experiment on UACC-62 melanoma it was > 74.8 µM. Moreover, the TGI in the experiment on CAKI-1 renal is > 100 µM.

Turning to `CCN(CC)C(=S)Nc1ccc(-c2cc3ccc(O)cc3oc2=O)cc1`, the TGI with U251 CNS was 85.1 µM; in the experiment on HS 578T breast it was 71.6 µM; with COLO 205 colon, > 100 µM; with SNB-75 CNS, > 100 µM; in the experiment with SR leukemia, 93.5 µM; in the experiment with K-562 leukemia, > 100 µM. Besides, the TGI in the experiment with UACC-62 melanoma was > 100 µM; in the experiment with OVCAR-5 ovarian, 79.5 µM; in the experiment with CAKI-1 renal it was > 100 µM.

Take `O=c1cc(-c2c[nH]c3ccccc23)[nH]c2cc3c(cc12)OCO3`: the TGI with U251 CNS was > 100 µM; with COLO 205 colon, > 100 µM; in the experiment with SNB-75 CNS, 72.6 µM; in the experiment with SR leukemia it was > 100 µM; with K-562 leukemia, > 100 µM; with UACC-62 melanoma, > 100 µM.

Consider `COc1cc(C2c3cc4c(cc3OC(Nc3ccccc3)C2C)OCO4)cc(OC)c1O` (configuration not stated), for which the TGI in the experiment on U251 CNS is 14.2 µM; with COLO 205 colon, 33.5 µM; in the experiment on SNB-75 CNS it was 7.35 µM; in the experiment with K-562 leukemia, 7.49 µM; in the experiment on UACC-62 melanoma it was 23 µM; in the experiment with OVCAR-5 ovarian, 26.2 µM. The TGI in the experiment with MCF7 breast is 24.6 µM; in the experiment with CAKI-1 renal it was > 100 µM.

With `Cc1c(CCO)c(=O)n2c([nH]c3ccccc32)c1C#N`, the TGI in the experiment with U251 CNS, in the experiment on COLO 205 colon, with SNB-75 CNS, in the experiment with K-562 leukemia, in the experiment with UACC-62 melanoma and with OVCAR-5 ovarian was > 100 µM each time. In addition, the TGI in the experiment with CAKI-1 renal was > 100 µM.

`CCCC(C)n1c(C)nc2c1C(=O)c1ccccc1C2=O` (configuration not stated): the TGI was > 100 µM with U251 CNS; > 100 µM with COLO 205 colon; > 100 µM with SNB-75 CNS; > 100 µM in the experiment on SR leukemia; > 100 µM in the experiment on K-562 leukemia; 23.8 µM with UACC-62 melanoma.

Take `COc1cc(CNc2cnc3cc(N)ccc3n2)cc(OC)c1OC`: the TGI in the experiment with U251 CNS is > 100 µM; in the experiment with COLO 205 colon, 62.2 µM; with SNB-75 CNS, > 100 µM; with SR leukemia, > 100 µM; in the experiment with K-562 leukemia, > 100 µM; in the experiment on UACC-62 melanoma it was > 100 µM. Further, the TGI in the experiment on OVCAR-5 ovarian and with CAKI-1 renal was > 100 µM in each case.

For `O=C1c2ccccc2C(=O)c2c(O)c(NCCCNCCO)cc(O)c21`, the TGI turned out to be 21.1 µM in the experiment with U251 CNS; 20.8 µM in the experiment with COLO 205 colon; 26.8 µM in the experiment on SNB-75 CNS; 3.5 µM with K-562 leukemia; 36.5 µM in the experiment with UACC-62 melanoma; 24.6 µM in the experiment with OVCAR-5 ovarian. This compound had a TGI in the experiment on CAKI-1 renal of 22.4 µM.

On to `O=C(/C=C/c1ccco1)c1ccc(NCc2nc3ccccc3[nH]2)cc1`, for which the TGI is 23.8 µM in the experiment with U251 CNS; 26.7 µM in the experiment with COLO 205 colon; 31.1 µM with SNB-75 CNS; 37.7 µM in the experiment with SR leukemia; 40.9 µM with K-562 leukemia; 30.2 µM in the experiment with UACC-62 melanoma. For the same compound, the TGI is 31.5 µM with OVCAR-5 ovarian and 49.9 µM in the experiment with CAKI-1 renal.

Regarding `Cc1ccc(-n2cc(-c3ccc(Cl)cc3)c3c(N/N=C4\SCC(=O)N4C)ncnc32)cc1`, the TGI with U251 CNS is 36.5 µM; in the experiment with HS 578T breast, 21.3 µM; with COLO 205 colon, 37.5 µM; in the experiment with SR leukemia it was > 100 µM; in the experiment with K-562 leukemia, > 100 µM; in the experiment with UACC-62 melanoma, 11.2 µM. Besides, the TGI was > 100 µM in the experiment with OVCAR-5 ovarian and 32.3 µM in the experiment on CAKI-1 renal.

Consider `CC(=O)NC1C(OCc2ccccc2)OC(CO)C(O)C1OC(C)C(=O)N[C@@H](C)C(=O)N[C@H](CCC(=O)OCCNc1c2ccccc2nc2cccc([N+](=O)[O-])c12)C(N)=O` (some centres not stated), for which the TGI in the experiment on COLO 205 colon is 0.0026 µM; with SNB-75 CNS it was 0.0405 µM and 0.00887 µM; in the experiment with SR leukemia, > 0.1 µM; with K-562 leukemia, > 0.1 µM; in the experiment with UACC-62 melanoma, 0.00203 µM; with OVCAR-5 ovarian, 0.0061 µM.

As to `COC(=O)/C(=N/Nc1cccc(Cl)c1)C(C(=O)C(=O)Nc1cccc(Cl)c1C)c1nc2ccccc2nc1C` (configuration not stated), the TGI in the experiment on COLO 205 colon is > 100 µM; in the experiment with SR leukemia, > 100 µM; in the experiment with K-562 leukemia it was > 100 µM; in the experiment with UACC-62 melanoma, > 100 µM; in the experiment with OVCAR-5 ovarian it was 59.8 µM; in the experiment with CAKI-1 renal, > 100 µM.

`CCOC(=O)c1cc(I)c(-c2cc(C)no2)n1C`: the TGI in the experiment on U251 CNS, in the experiment on COLO 205 colon, in the experiment on SNB-75 CNS, with K-562 leukemia, in the experiment with UACC-62 melanoma and in the experiment with OVCAR-5 ovarian was > 100 µM in each case. The TGI in the experiment with CAKI-1 renal was 54.7 µM.

Take `COC(=O)C1C=CCON2CCc3c(n(C)c4ccccc34)C12` (configuration not stated): the TGI in the experiment with U251 CNS, in the experiment with COLO 205 colon, in the experiment on SNB-75 CNS, in the experiment with SR leukemia, in the experiment with K-562 leukemia and in the experiment with OVCAR-5 ovarian was > 100 µM in each case. Further, the TGI with CAKI-1 renal is > 100 µM.

On to `CC1(C)O[C@@H](CCl)C[C@H](C#N)O1`, for which the TGI with U251 CNS, with COLO 205 colon, in the experiment with SNB-75 CNS, with SR leukemia, in the experiment with K-562 leukemia and with UACC-62 melanoma was > 100 µM throughout. The TGI with OVCAR-5 ovarian and with CAKI-1 renal was > 100 µM throughout.

The record behind these values is PubChem BioAssay (NCI).
